Experimental data as given in US20110183978A1, “Phenylpyri(mi)dinylazoles” (Bayer CropScience AG, priority 2009, published 2011).
Where two headings read alike, the source gives them in different places.

Key:
[1] = tested on: Botrytis cinerea; test: Example P: in vivo test on Botrytis cinerea (gray mould on bean/protective); conditions: 48 h, bean, protective, 250 ppm active substance, assessed 2 days after inoculation, read-out: % Wirkungsgrad (activity level)
Description: Emulsifier: 1 part by weight alkylaryl polyglycol ethers For the preparation of a suitable active substance preparation, 1 part by weight of active substance is mixed with the stated quantities of solvent and emulsifier and the concentrate is diluted to the desired concentration with water. For the testing for protective activity, young plants are sprayed with the active substance preparation at the stated application dosage. After drying of the spray coating, 2 small pieces of agar with Botrytis cinerea growing on them are laid on every leaf. […] 2 days after the inoculation, the size of the infection blotches on the leaves is assessed.

[2] = tested on: Fusarium graminearum; test: microbe, parasite or virus in culture; assay type: cell-based
[3] = tested on: Plasmopara viticola; test: Example N: in vivo test on Plasmopara viticola (downy mildew, vine/protective); conditions: 144 h, vine, protective, assessment 6 days after inoculation, read-out: % Wirkungsgrad
Description: (§1) Emulsifier: 1 part by weight alkylaryl polyglycol ethers For the preparation of a suitable active substance preparation, 1 part by weight of active substance is mixed with the stated quantities of solvent and emulsifier and the concentrate is diluted to the desired concentration with water. For the testing for protective activity, young plants are sprayed with the active substance preparation at the stated application dosage. […] The plants are then moistened and placed in an incubation cabin for 1 day. 6 days after the inoculation, the assessment takes place.

[4] = tested on: Alternaria solani; test: Example M: in vivo test on Alternaria solani (leaf blotch disease/tomato/protective); conditions: 168 h, tomato, protective, 500 ppm active substance, assessed 7 days after inoculation, read-out: % Wirkungsgrad (activity level)
Summary of the method: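 Protective test: young tomato plants sprayed with active substance (in DMF with alkylaryl polyglycol ether emulsifier, diluted in water) at the stated dosage, then inoculated with Alternaria solani. Disease assessed 7 days after inoculation.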

[5] = tested on: Venturia inaequalis; test: Example O: in vivo test on Venturia inaequalis (apple scab/protective); conditions: 240 h, protective, assessment 10 days after inoculation, read-out: % Wirkungsgrad
Description: as §1, with “10” for “The plants are then moistened and placed in an incubation cabin for 1 day. 6”

[6] = physchem
[7] = tested on: Sphaerotheca fuliginea; test: Example L: in vivo test on Sphaerotheca fuliginea (powdery mildew on cucumber/protective); conditions: Podosphaera fuliginea, 168 h, cucumber, protective, assessment 7 days after inoculation, read-out: % Wirkungsgrad
Summary of the method: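 Young cucumber plants sprayed at stated dosage with compound in DMF/alkylaryl polyglycol ether emulsifier diluted in water; inoculated with S. fuliginea spores one day later. Kept in greenhouse at 70% relative humidity, 23° C; protective activity assessed 7 days after inoculation.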

[8] = tested on: Fusarium graminearum; test: whole plant or invertebrate; assay type: in vivo; conditions: in Hordeum vulgare, 120 h, read-out: % Wirkungsgrad (activity level)
[9] = tested on: Fusarium proliferatum; test: Example I: production of fumonisin FB1 by Fusarium proliferatum (microtitre plates); assay type: cell-based; conditions: 120 h
[10] = tested on: Mycosphaerella graminicola; test: Example G: in vivo test on Mycosphaerella graminicola (wheat leaf blotch disease); conditions: Zymoseptoria tritici, wheat plants sprayed 24 hours before inoculation, scored after 21 to 28 days, read-out: % Wirkungsgrad
Description: In Vivo Test on Mycosphaerella Graminicola (Wheat Leaf Blotch Disease) An aqueous suspension of the active substance was prepared by homogenization of a mixture of acetone/Tween/dimethyl sulphoxide and subsequent dilution with water to the desired concentration. Wheat plants (variety: Scipion) are sown in cultivation dishes on a peat-pozzolanic earth substrate (50/50) at 12° C. and sprayed at the first-leaf stage (10 cm size) with the aqueous suspension described above. As a control, plants are sprayed with an aqueous solution with no active substance. After 24 hours the plants are inoculated by spraying with an aqueous suspension of Mycosphaerella graminicola spores (500,000 spores per ml). The spores are derived from a 7 day-old culture. […] After 21 to 28 days they are scored in comparison with the control plants.

[11] = tested on: Sphaerotheca fuliginea; test: Example D: in vivo test on Sphaerotheca fuliginea (powdery mildew on cucumber); conditions: Podosphaera fuliginea, 288 h, cucumber plants sprayed 24 hours before inoculation, scored after 12 days, read-out: % Wirkungsgrad
Description: In Vivo Test on Sphaerotheca Fuliginea (Powdery Mildew on Cucumber) An aqueous suspension of the active substance was prepared by homogenization of a mixture of acetone/Tween/dimethyl sulphoxide and subsequent dilution with water to the desired concentration. Cucumber plants (variety: Vert petit de Paris) are sown in cultivation dishes on a peat-pozzolanic earth substrate (50/50) at 20/23° C. and at the cotyledon stage Z10 sprayed with the aqueous suspension described above. As a control, plants are sprayed with an aqueous solution with no active substance. After 24 hours the plants are inoculated by spraying with an aqueous suspension of Sphaerotheca fuliginea spores (100,000 spores per ml). The spores are derived from a contaminated plant. The inoculated cucumber plants are incubated at ca. 20/25° C. at a relative atmospheric humidity of 60/70%. After 12 days they are scored in comparison with the control plants.

[12] = 72 h, read-out: % Inhibition des Pilzwachstums bei 50 μM
[13] = 168 h, read-out: % Inhibition der DON/AcDON produktion bei 50 μM
[14] = LogPA (logP of the stated pure compound or, in a mixture, of the main isomer, 1-substituted 3-aryl-1H-pyrazole)

CC(C)CC(=O)Nc1cc(-c2cn(C(C)C)nc2-c2ccc(F)cc2)ccn1 [Compound 160]
pest or weed control at 250 ppm [1]: 100% | inhibition at 50 µM [2, 12]: 100% | inhibition at 50 µM [2, 13]: 100% | pest or weed control at 100 ppm [3]: 79% | pest or weed control at 500 ppm [4]: 95% | pest or weed control at 100 ppm [5]: 94% | chromatographic logP [6, 14]: 2.82 | pest or weed control at 500 ppm [7]: 100%

O=C(CC1CC1)Nc1cc(-c2cn(CC3CC3(Cl)Cl)nc2-c2ccc(F)cc2)ccn1 (stereo not drawn) [Compound 251]
pest or weed control at 250 ppm [1]: 95% | pest or weed control at 500 ppm [4]: 94% | pest or weed control at 1000 ppm [8]: 83% | pest or weed control at 100 ppm [5]: 84% | chromatographic logP ([6]; LogPA): 3.3 | pest or weed control at 500 ppm [7]: 96%

C#CCNc1nccc(-c2cn(CC(C)C)nc2-c2ccc(F)cc2)n1 [Compound 183]
pest or weed control at 250 ppm [1]: 93% | inhibition at 50 µM [2, 12]: 65% | inhibition at 50 µM [2, 13]: 99% | pest or weed control at 100 ppm [3]: 86% | pest or weed control at 500 ppm [4]: 100% | pest or weed control at 100 ppm [5]: 73% | chromatographic logP ([6]; LogPA): 2.76 | pest or weed control at 500 ppm [7]: 94%

CC(=O)Nc1cc(-c2cn(C(C)C)nc2-c2ccc(F)cc2)ccn1 [Compound 161]
pest or weed control at 250 ppm [1]: 100% | inhibition at 50 µM [2, 12]: 104% | inhibition at 50 µM [2, 13]: 100% | pest or weed control at 100 ppm [3]: 95% | pest or weed control at 500 ppm [4]: 95% | pest or weed control at 100 ppm [5]: 95% | chromatographic logP [6, 14]: 1.85 | pest or weed control at 500 ppm [7]: 100%

O=C(Nc1cc(-c2cn(CC(F)F)nc2-c2ccc(F)cc2)ccn1)c1cccs1 [Compound 236]
pest or weed control at 250 ppm [1]: 100% | pest or weed control at 100 ppm [3]: 76% | pest or weed control at 500 ppm [4]: 94% | pest or weed control at 100 ppm [5]: 94% | chromatographic logP ([6]; LogPA): 2.82 | pest or weed control at 500 ppm [7]: 86%

CCC(=O)Nc1cc(-c2cn(CCCl)nc2-c2ccc(F)cc2)ccn1 [Compound 219]
pest or weed control at 250 ppm [1]: 100% | inhibition at 50 µM [2, 12]: 97% | inhibition at 50 µM [2, 13]: 100% | pest or weed control at 100 ppm [3]: 95% | pest or weed control at 100 ppm [5]: 96% | chromatographic logP ([6]; LogPA): 2.01 | inhibition at 50 µM ([9]; Fusarium proliferatum growth, OD 620, 5 days, read-out: % Inhibition des Pilzwachstums bei 50 μM): 97% | inhibition at 50 µM ([9]; Fusarium proliferatum, 5 days at 20° C., HPLC-MS/MS, read-out: % Inhibition der FB1 produktion bei 50 μM): 100% | pest or weed control at 500 ppm [7]: 100%

Fc1cccc(F)c1-c1nn(C2CCCC2)cc1-c1ccncc1 [Compound 16]
pest or weed control at 500 ppm [10]: 97% | chromatographic logP [6, 14]: 1.79

CCOC(=O)CCn1cc(-c2ccncc2)c(-c2ccc(F)cc2)n1 [Compound 132]
pest or weed control at 500 ppm [10]: 86% | pest or weed control at 500 ppm [11]: 82% | chromatographic logP [6, 14]: 1.29

CC(C)n1cc(-c2ccnc(NC(=O)c3ccsc3)c2)c(-c2ccc(F)cc2)n1 [Compound 207]
pest or weed control at 250 ppm [1]: 100% | inhibition at 50 µM [2, 12]: 75% | inhibition at 50 µM [2, 13]: 100% | pest or weed control at 100 ppm [3]: 71% | pest or weed control at 500 ppm [4]: 90% | pest or weed control at 100 ppm [5]: 86% | chromatographic logP ([6]; LogPA): 2.96 | pest or weed control at 500 ppm [7]: 100%

O=C(Nc1cc(-c2cn(CC3CC3(Cl)Cl)nc2-c2ccc(F)cc2)ccn1)C1CC1 (stereo not drawn) [Compound 260]
pest or weed control at 250 ppm [1]: 100% | inhibition at 50 µM [2, 12]: 5% | inhibition at 50 µM [2, 13]: 99% | pest or weed control at 100 ppm [3]: 70% | pest or weed control at 500 ppm [4]: 90% | pest or weed control at 100 ppm [5]: 94% | chromatographic logP ([6]; LogPA): 2.67 | pest or weed control at 500 ppm [7]: 95%

CC(C)n1ncc(-c2ccnc(NC(=O)C(C)(C)C)c2)c1-c1ccc(F)cc1 [Compound 72]
pest or weed control at 500 ppm [10]: 83% | pest or weed control at 500 ppm [4]: 95% | chromatographic logP [6, 14]: 2.99
